For this assay, the target named is T1, human ORL1 receptor (Homo sapiens, UniProt P41146).
T1 construct: expressed in transfected cells; host or cells: HEK-293
Description: ORL1-receptor binding assay ([3H]nociceptin, SPA). To be noted: human ORL1 receptor transfected HEK-293 cell membranes, 0.4 nM [3H]nociceptin; read-out: IC50 value with regard to binding activity for the ORL1 receptor. The protocol:
The human ORL1 receptor transfected HEK-293 cell membranes were incubated for 45 min at 22° C. with 0.4 nM [^3H]nociceptin, 1.0 mg of wheat germ agglutinin-coated SPA beads and various concentrations of test compounds in a final volume of 200 μl of 50 mM HEPES buffer pH7.4 containing 10 mM MgCl2 and 1 mM EDTA. Non-specific binding was determined by the addition of 1 μM unlabeled nociceptin. After the reaction, the assay plate was centrifuged at 1,000 rpm for 1 min and then the radioactivity was measured by a Liquid Scintillation Counter.
Each percent NSB thus obtained was graphed as a function of compound concentration. A sigmoidal curve was used to determine 50% bindings (i.e., IC50 values).

T1 sequence (P41146 whole entry): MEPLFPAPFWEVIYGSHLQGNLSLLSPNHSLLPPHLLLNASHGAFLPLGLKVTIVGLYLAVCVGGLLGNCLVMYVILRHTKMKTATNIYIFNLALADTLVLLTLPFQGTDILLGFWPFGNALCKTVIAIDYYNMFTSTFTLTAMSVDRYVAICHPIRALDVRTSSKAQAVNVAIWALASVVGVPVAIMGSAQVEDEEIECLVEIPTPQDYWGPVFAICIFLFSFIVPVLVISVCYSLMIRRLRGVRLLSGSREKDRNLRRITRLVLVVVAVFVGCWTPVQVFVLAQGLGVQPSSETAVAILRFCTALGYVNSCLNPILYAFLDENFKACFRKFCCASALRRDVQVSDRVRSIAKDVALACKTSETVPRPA

Regarding `CN1C(=O)C2(CCN(CC3Cc4c(F)ccc(O)c4CN3)CC2)c2ccccc21` (centres unmarked) [Example 22, 1′-[(5-Fluoro-8-hydroxy-1,2,3,4-tetrahydroisoquinolin-3-yl)methyl]-1-methylspiro[indole-3,4′-piperidin]-2(1H)-one], the IC50 was 4.9 nM.

`CN1CC2(CCN(CC3Cc4c(F)ccc(O)c4CN3)CC2)c2ccccc21` (centres unmarked) [Example 11, 5-Fluoro-3-[(1-methyl-1,2-dihydro-1′H-spiro[indole-3,4′-piperidin]-1′-yl)methyl]-1,2,3,4-tetrahydroisoquinolin-8-ol]: the 50% inhibitory concentration (IC50) amounted to 7.4 nM.

The record behind these values is US20050153998A1, “Tetrahydroisoquinoline or isochroman compounds” (priority 2003, published 2005).
